# Assay results published in patent publication US12428406B2 (PMV Pharmaceuticals, Inc., priority 2019, dated 2025).
# Target: T1, p53 Y220C (Homo sapiens, UniProt P04637, Y220C)
# T1 construct: The recombinant protein was a truncation mutant containing only amino acids 94-312 of p53; made in house; host or cells: E. coli
# Assay: In vitro DNA binding activity assay (HTRF / TR-FRET): stabilization of p53 Y220C and increase of its DNA binding activity
# Type: biochemical
# Conditions: recombinant His-tagged p53 Y220C DNA binding domain (aa 94-312), biotin-labeled consensus DNA, incubated at 27° C. or 29° C. for 60 min
# Procedure, shortened: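 Compounds from 4.5 mM DMSO stocks, 3-fold serial dilutions; room-temperature incubations of 15 and 20 min. SC150 = concentration raising DNA binding by 50% over no-compound control.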
# T1 sequence (P04637 94-312, change not shown): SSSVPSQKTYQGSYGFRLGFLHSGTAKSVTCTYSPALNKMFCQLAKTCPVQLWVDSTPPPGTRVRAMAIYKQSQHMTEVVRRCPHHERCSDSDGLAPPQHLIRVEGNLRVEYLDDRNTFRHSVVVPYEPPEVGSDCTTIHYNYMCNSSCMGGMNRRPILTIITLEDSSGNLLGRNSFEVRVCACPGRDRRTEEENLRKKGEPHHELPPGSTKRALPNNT
row,Compound,SC150 (concentration of the compound required to increase the DNA binding activity by 50%)
1,"COCC(O)CN1CCC(Nc2cccc3c2cc(C#CCNc2ccc(Cl)cc2OC)n3CC(F)(F)F)CC1 (centres unmarked) [Compound 716A, 1-{4-[(2-{3-[(4-chloro-2-methoxyphenyl)amino]prop-1-yn-1-yl}-1-(2,2,2-trifluoroethyl)-1H-indol-4-yl)amino]piperidin-1-yl}-3-methoxypropan-2-ol]",++ (++ = 0.05 μM ≤ SC150 < 0.1 μM)
2,COc1cc(S(C)(=O)=O)ccc1NCC#Cc1cc2c(NC3CCN(c4nc(C)cs4)CC3)cccc2n1CC(F)(F)F [Compound 719A],+++ (+++ = 0.1 μM ≤ SC150 < 0.2 μM)
3,"COc1cc(S(C)(=O)=O)ccc1NCC#Cc1cc2c(NC3CCN(C4CC4)CC3)cccc2n1CC(F)(F)F [Compound 720A, N-(1-cyclopropylpiperidin-4-yl)-2-{3-[(4-methanesulfonyl-2-methoxyphenyl)amino]prop-1-yn-1-yl}-1-(2,2,2-trifluoroethyl)-1H-indol-4-amine]",+ (+ = 0 μM ≤ SC150 < 0.05 μM)
4,"COc1cc(C(=O)O)ccc1NCC#Cc1cc2c(NC3CCN(C4CC4)CC3)cccc2n1CC(F)(F)F [Compound 721A, 4-[(3-{4-[(1-cyclopropylpiperidin-4-yl)amino]-1-(2,2,2-trifluoroethyl)-1H-indol-2-yl}prop-2-yn-1-yl)amino]-3-methoxybenzoic acid]",+ (+ = 0 μM ≤ SC150 < 0.05 μM)
5,"COc1cc(S(C)(=O)=O)ccc1NCC#Cc1cc2c(NC3CCN([C@@H]4CCOC4)CC3)cccc2n1CC(F)(F)F [Compound 722A, 2-{3-[(4-methanesulfonyl-2-methoxyphenyl)amino]prop-1-yn-1-yl}-N-{1-[(3R)-oxolan-3-yl]piperidin-4-yl}-1-(2,2,2-trifluoroethyl)-1H-indol-4-amine]",+ (+ = 0 μM ≤ SC150 < 0.05 μM)
6,"COc1cc(S(C)(=O)=O)ccc1NCC#Cc1cc2c(NC3CCN([C@H]4CCOC4)CC3)cccc2n1CC(F)(F)F [Compound 723A, 2-{3-[(4-methanesulfonyl-2-methoxyphenyl)amino]prop-1-yn-1-yl}-N-{1-[(3S)-oxolan-3-yl]piperidin-4-yl}-1-(2,2,2-trifluoroethyl)-1H-indol-4-amine]",+ (+ = 0 μM ≤ SC150 < 0.05 μM)
7,"COc1cc(C(=O)O)ccc1NCC#Cc1cc2c(NC3CCN(C4CCOCC4)CC3)cccc2n1CC(F)(F)F [Compound 724A, 3-methoxy-4-{1[3-(4-{[1-(oxan-4-yl)piperidin-4-yl]amino}-1-(2,2,2-trifluoroethyl)-1H-indol-2-yl)prop-2-yn-1-yl]amino}benzoic acid]",+ (+ = 0 μM ≤ SC150 < 0.05 μM)
8,"CC(=O)N1CCC(Nc2cccc3c2cc(C#CCNc2ccc(S(C)(=O)=O)cc2OCC#N)n3CC(F)(F)F)CC1 [Compound 729A, 2-{2-[(3-{4-[(1-acetylpiperidin-4-yl)amino]-1-(2,2,2-trifluoroethyl)-1H-indol-2-yl}prop-2-yn-1-yl)amino]-5-methanesulfonylphenoxy}acetonitrile]",+ (+ = 0 μM ≤ SC150 < 0.05 μM)
9,COc1cc(S(=O)(=O)N(C)C)ccc1NCC#Cc1cc2c(NC3CCN(C(=O)CO)CC3)cccc2n1CC(F)(F)F [Compound 730A],+ (+ = 0 μM ≤ SC150 < 0.05 μM)
10,"CS(=O)(=O)c1ccc(NCC#Cc2cc3c(NC4CCN(C(=O)CO)CC4)cccc3n2CC(F)(F)F)c(O)c1 [Compound 731A, 2-hydroxy-1-{4-[(2-{3-[(2-hydroxy-4-methanesulfonylphenyl)amino]prop-1-yn-1-yl}-1-(2,2,2-trifluoroethyl)-1H-indol-4-yl)amino]piperidin-1-yl}ethan-1-one]",+ (+ = 0 μM ≤ SC150 < 0.05 μM)
11,"COc1cc(S(N)(=O)=O)ccc1NCC#Cc1cc2c(N[C@H]3CCN(C(C)=O)[C@@H](C)C3)cccc2n1CC(F)(F)F [Compound 740A, 4-{[3-(4-{[(2S, 4S)-1-acetyl-2-methylpiperidin-4-yl]amino}-1-(2,2,2-trifluoroethyl)-1H-indol-2-yl)prop-2-yn-1-yl]amino}-3-methoxybenzene-1-sulfonamide]",+ (+ = 0 μM ≤ SC150 < 0.05 μM)
12,"COCC(=O)N1CCC(Nc2cccc3c2cc(C#CCNc2ccc(S(C)(=O)=O)cc2OC)n3CC(F)(F)F)CC1 [Compound 741A, 1-{4-[(2-{3-[(4-methanesulfonyl-2-methoxyphenyl)amino]prop-1-yn-1-yl}-1-(2,2,2-trifluoroethyl)-1H-indol-4-yl)amino]piperidin-1-yl}-2-methoxyethan-1-one]",+ (+ = 0 μM ≤ SC150 < 0.05 μM)
13,COc1cc(S(C)(=O)=O)ccc1NCC#Cc1cc2c(NC3CCN(C(=O)C(C)O)CC3)cccc2n1CC(F)(F)F (centres unmarked) [Compound 742A],+ (+ = 0 μM ≤ SC150 < 0.05 μM)
14,COc1cc(S(N)(=O)=O)ccc1NCC#Cc1cc2c(NC3CCN(C(=O)C(C)O)CC3)cccc2n1CC(F)(F)F (centres unmarked) [Compound 745A],+ (+ = 0 μM ≤ SC150 < 0.05 μM)
15,COc1cc(S(C)(=O)=O)ccc1NCC#Cc1cc2c(NC3CCN(C(=O)CC#N)CC3)cccc2n1CC(F)(F)F [Compound 746A],+ (+ = 0 μM ≤ SC150 < 0.05 μM)
16,COc1cc(S(N)(=O)=O)ccc1NCC#Cc1cc2c(NC3CCN(C(=O)CC#N)CC3)cccc2n1CC(F)(F)F [Compound 747A],+ (+ = 0 μM ≤ SC150 < 0.05 μM)
17,COc1cc(S(N)(=O)=O)ccc1NCC#Cc1cc2c(NC3CCN(C(=O)CO)CC3)cccc2n1CC(F)(F)F [Compound 748A],+ (+ = 0 μM ≤ SC150 < 0.05 μM)
18,"COc1cc(S(N)(=O)=O)ccc1NCC#Cc1cc2c(NC3CCN(C(C)=O)CC3)cccc2n1CC(F)(F)F [Compound 749A, 4-[(3-{4-[(1-acetylpiperidin-4-yl)amino]-1-(2,2,2-trifluoroethyl)-1H-indol-2-yl}prop-2-yn-1-yl)amino]-3-methoxybenzene-1-sulfonamide]",+ (+ = 0 μM ≤ SC150 < 0.05 μM)
19,COc1cc(S(C)(=O)=O)ccc1NCC#Cc1cc2c(NC3CCN(C(=O)CN(C)C)CC3)cccc2n1CC(F)(F)F [Compound 750A],+ (+ = 0 μM ≤ SC150 < 0.05 μM)
20,COc1cc(S(N)(=O)=O)ccc1NCC#Cc1cc2c(NC3CCN(C(=O)CN(C)C)CC3)cccc2n1CC(F)(F)F [Compound 751A],+ (+ = 0 μM ≤ SC150 < 0.05 μM)
21,COc1cc(S(C)(=O)=O)ccc1NCC#Cc1cc2c(NC3CCN(C(=O)C(C)C)CC3)cccc2n1CC(F)(F)F [Compound 752A],+ (+ = 0 μM ≤ SC150 < 0.05 μM)
22,COc1cc(S(N)(=O)=O)ccc1NCC#Cc1cc2c(NC3CCN(C(=O)C(C)C)CC3)cccc2n1CC(F)(F)F [Compound 753A],+ (+ = 0 μM ≤ SC150 < 0.05 μM)
23,"COc1cc(S(=O)(=O)N(C)C)ccc1NCC#Cc1cc2c(NC3CCN(C(C)=O)CC3)cccc2n1CC(F)(F)F [Compound 755A, 4-[(3-{4-[(1-acetylpiperidin-4-yl)amino]-1-(2,2,2-trifluoroethyl)-1H-indol-2-yl}prop-2-yn-1-yl)amino]-3-methoxy-N,N-dimethylbenzene-1-sulfonamide]",+ (+ = 0 μM ≤ SC150 < 0.05 μM)
24,CCC(=O)N1CCC(Nc2cccc3c2cc(C#CCNc2ccc(S(C)(=O)=O)cc2OC)n3CC(F)(F)F)CC1 [Compound 756A],+ (+ = 0 μM ≤ SC150 < 0.05 μM)
25,CCC(=O)N1CCC(Nc2cccc3c2cc(C#CCNc2ccc(S(N)(=O)=O)cc2OC)n3CC(F)(F)F)CC1 [Compound 757A],+ (+ = 0 μM ≤ SC150 < 0.05 μM)
26,"COc1cc(S(=O)(=O)N2CCOCC2)ccc1NCC#Cc1cc2c(NC3CCN(C(C)=O)CC3)cccc2n1CC(F)(F)F [Compound 758A, 1-(4-{1[2-(3-{1[2-methoxy-4-(morpholine-4-sulfonyl)phenyl]amino}prop-1-yn-1-yl)-1-(2,2,2-trifluoroethyl)-1H-indol-4-yl]amino}piperidin-1-yl)ethan-1-one]",+ (+ = 0 μM ≤ SC150 < 0.05 μM)
27,"COc1cc(S(N)(=O)=O)ccc1NCC#Cc1cc2c(NC3CCN(C[C@H]4COC(=O)O4)CC3)cccc2n1CC(F)(F)F [Compound 759A, 3-methoxy-4-[(3-{4-[(1-{[(4S)-2-oxo-1,3-dioxolan-4-yl]methyl}piperidin-4-yl)amino]-1-(2,2,2-trifluoroethyl)-1H-indol-2-yl}prop-2-yn-1-yl)amino]benzene-1-sulfonamide]",+ (+ = 0 μM ≤ SC150 < 0.05 μM)
28,"COc1cc(S(=O)(=O)NC(C)=O)ccc1NCC#Cc1cc2c(NC3CCN(CC4COC(=O)O4)CC3)cccc2n1CC(F)(F)F (centres unmarked) [Compound 761A, N-[3-methoxy-4-({3-[4-({1-[(2-oxo-1,3-dioxolan-4-yl)methyl]piperidin-4-yl}amino)-1-(2,2,2-trifluoroethyl)-1H-indol-2-yl]prop-2-yn-1-yl}amino)benzenesulfonyl]acetamide]",+ (+ = 0 μM ≤ SC150 < 0.05 μM)
29,"CNC(=O)c1ccc(NCC#Cc2cc3c(NC4CCN(CC5COC(=O)O5)CC4)cccc3n2CC(F)(F)F)c(OC)c1 (centres unmarked) [Compound 762A, 3-methoxy-N-methyl-4-({3-[4-({1-[(2-oxo-1,3-dioxolan-4-yl)methyl]piperidin-4-yl}amino)-1-(2,2,2-trifluoroethyl)-1H-indol-2-yl]prop-2-yn-1-yl}amino)benzamide]",+ (+ = 0 μM ≤ SC150 < 0.05 μM)
